20 molecules from PubChem BioAssay AID330 (DTP/NCI, 2004) can be followed below.

Several values for one entry are separate records, joined by “and”; a condition that tells them apart may be missing. Equal values may be shown once. Toxic doses and inconclusive results are not listed.

The experiment deals with P388 leukemia ip, CD2F1 mice, survival T/C. As to the kind of experiment: NCI In Vivo Anticancer Drug Screen. Data for tumor model P388 Leukemia (intraperitoneal) in CD2F1 (CDF1) mice. The following applies: endpoint: median survival time, higher = longer survival. In outline: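 Mice carrying the transplanted tumor received test compound or vehicle. Survival was recorded in each group, and the value is the treated-group measurement divided by that of the vehicle-treated control group.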

[1] abbreviates: dose: 25.0 mg/kg/injection, schedule: Q01DX009 (ip), vehicle: Klucel (hydroxypropylcellulose) (HPC).
[2] abbreviates: dose: 50.0 mg/kg/injection, schedule: Q01DX009 (ip), vehicle: Klucel (hydroxypropylcellulose) (HPC).
Where [3] appears, read: dose: 50.0 mg/kg/injection, schedule: Q01DX005 (ip), vehicle: saline with Tween-80.
Setting [4] is: dose: 100.0 mg/kg/injection, schedule: Q01DX005 (ip), vehicle: saline with Tween-80.
Where [5] appears, read: dose: 50.0 mg/kg/injection, schedule: Q01DX005 (ip), vehicle: Klucel (hydroxypropylcellulose) (HPC).
Where [6] appears, read: dose: 100.0 mg/kg/injection, schedule: Q01DX005 (ip), vehicle: Klucel (hydroxypropylcellulose) (HPC).
Where [7] appears, read: dose: 200.0 mg/kg/injection, schedule: Q01DX005 (ip), vehicle: Klucel (hydroxypropylcellulose) (HPC).
Where [8] appears, read: dose: 60.0 mg/kg/injection, schedule: Q01DX005 (ip), vehicle: saline with Tween-80.
[9] abbreviates: dose: 120.0 mg/kg/injection, schedule: Q01DX005 (ip), vehicle: saline with Tween-80.
Setting [10] is: dose: 240.0 mg/kg/injection, schedule: Q01DX005 (ip), vehicle: saline with Tween-80.

In the case of `COc1cccc2c1C(=O)c1c(O)c3c(c(O)c1C2=O)C[C@@](O)(C(C)=O)C[C@@H]3OC1CC(N2CCSCC2)C(O)C(C)O1` (some centres not stated), the T/C (dose: 0.39 mg/kg/injection, schedule: Q04DX003 (ip), vehicle: distilled water + Tween-80) is 118 % of control; the T/C (dose: 0.78 mg/kg/injection, schedule: Q04DX003 (ip), vehicle: distilled water + Tween-80) was 100 % of control; the T/C (dose: 1.56 mg/kg/injection, schedule: Q04DX003 (ip), vehicle: distilled water + Tween-80) was 103 % of control; the T/C (dose: 3.12 mg/kg/injection, schedule: Q04DX003 (ip), vehicle: distilled water + Tween-80) is 113 % of control; the T/C (dose: 6.25 mg/kg/injection, schedule: Q04DX003 (ip), vehicle: distilled water + Tween-80) is 106 % of control; the T/C (dose: 6.25 mg/kg/injection, schedule: Q04DX003 (ip), vehicle: water) is 105 % of control. Moreover, the T/C reads like this: (dose: 12.5 mg/kg/injection, schedule: Q04DX003 (ip), vehicle: distilled water + Tween-80) 123 % of control; (dose: 12.5 mg/kg/injection, schedule: Q04DX003 (ip), vehicle: water) 113 % of control; (dose: 25.0 mg/kg/injection, schedule: Q04DX003 (ip), vehicle: distilled water + Tween-80) 124 % of control; (dose: 25.0 mg/kg/injection, schedule: Q04DX003 (ip), vehicle: water) 123 % of control; (dose: 50.0 mg/kg/injection, schedule: Q04DX003 (ip), vehicle: water) 169 % of control.

On to `COc1cc(N(CCCl)CCCl)c(OC)cc1C=Nc1cccc(Br)c1`, for which the T/C by setting is: (dose: 6.25 mg/kg/injection, schedule: Q01DX009 (ip), vehicle: saline) 113 % of control; (dose: 12.5 mg/kg/injection, schedule: Q01DX009 (ip), vehicle: suspension in saline) 116 % of control; (dose: 25.0 mg/kg/injection, schedule: Q01DX009 (ip), vehicle: saline) 167 % of control; (dose: 25.0 mg/kg/injection, schedule: Q01DX009 (ip), vehicle: suspension in saline) 124 % of control; (dose: 50.0 mg/kg/injection, schedule: Q01DX009 (ip), vehicle: saline) 254 % of control; (dose: 50.0 mg/kg/injection, schedule: Q01DX009 (ip), vehicle: suspension in saline) 150 % of control.

Turning to `C=C(C#N)CCl`, the T/C by setting is: (dose: 25.0 mg/kg/injection, schedule: Q01DX001 (ip), vehicle: saline with Tween-80) 104 % of control; (dose: 50.0 mg/kg/injection, schedule: Q01DX001 (ip), vehicle: saline with Tween-80) 95 % of control.

As for `CNc1ccc(F)cc1SSc1cc(F)ccc1NC`, the T/C was 108 % of control under setting [1]; 110 % of control under setting [2]; 115 % of control (dose: 100.0 mg/kg/injection, schedule: Q01DX009 (ip), vehicle: Klucel (hydroxypropylcellulose) (HPC)).

On to `CNC(=O)OCc1c(COC(=O)NC)c(-c2ccccc2)n(C)c1C`, for which, under “dose: 50.0 mg/kg/injection, schedule: Q01DX009 (ip), vehicle: distilled water + Tween-80”, the T/C was 90 % of control.

On to `O/N=C/c1cccc[n+]1Cc1ccccc1`, for which the T/C (dose: 1.56 mg/kg/injection, schedule: Q01DX009 (ip), vehicle: water) was 102 % of control; the T/C (dose: 3.13 mg/kg/injection, schedule: Q01DX009 (ip), vehicle: water) was 101 % of control; the T/C (dose: 6.25 mg/kg/injection, schedule: Q01DX009 (ip), vehicle: water) was 102 % of control; the T/C (dose: 12.5 mg/kg/injection, schedule: Q01DX009 (ip), vehicle: water) was 102 % of control; the T/C (dose: 25.0 mg/kg/injection, schedule: Q01DX009 (ip), vehicle: water) is 107 % of control.

Take `CCC1=CC2CN(CCc3c([nH]c4ccccc34)C(C(=O)OC)(c3cc4c(cc3OC)N(C=O)C3C(O)(C(=O)NC)C(OC(C)=O)C5(CC)C=CCN6CCC43C65)C2)C1` (configuration not stated): the T/C reads like this: (dose: 1.0 mg/kg/injection, schedule: Q01DX001 (ip), vehicle: water) 150 % of control; (dose: 2.0 mg/kg/injection, schedule: Q01DX001 (ip), vehicle: water) 153 % of control; (dose: 4.0 mg/kg/injection, schedule: Q01DX001 (ip), vehicle: water) 160 % of control.

On to `CCCCNC(C)(C)C(SSSC(c1cccs1)C(C)(C)NCCCC)c1cccs1` (configuration not stated), for which the T/C was 121 % of control under setting [3]; 120 % of control under setting [4]; 101 % of control (dose: 100.0 mg/kg/injection, schedule: Q04DX003 (ip), vehicle: saline with Tween-80); 123 % of control (dose: 200.0 mg/kg/injection, schedule: Q01DX005 (ip), vehicle: saline with Tween-80); 105 % of control (dose: 200.0 mg/kg/injection, schedule: Q04DX003 (ip), vehicle: saline with Tween-80); 105 % of control (dose: 400.0 mg/kg/injection, schedule: Q04DX003 (ip), vehicle: saline with Tween-80).

In the case of `Cn1c2c(c(=O)c3ccccc31)CCC(C)(C)O2`, the T/C under setting [5] is 100 % of control, the T/C under setting [6] is 91 % of control and the T/C under setting [7] is 98 % of control.

As for `Cc1ccc2c(c1)[C@]1(C)O[C@@H](C=C[C@@H]1O)O2`, the T/C reads like this: (dose: 100.0 mg/kg/injection, schedule: Q01DX001 (ip), vehicle: Klucel (hydroxypropylcellulose) (HPC)) 104 % of control; (dose: 200.0 mg/kg/injection, schedule: Q01DX001 (ip), vehicle: Klucel (hydroxypropylcellulose) (HPC)) 102 % of control.

For `OCc1c(CO)c2cccn2c2c1cnn2-c1ccccc1`, the T/C was 100 % of control under setting [8], 90 % of control under setting [9] and 89 % of control under setting [10].

As for `CCOC(=O)NCCCl`, the T/C runs as follows: (dose: 5.0 mg/kg/injection, schedule: Q01DX009 (ip), vehicle: saline with Tween-80) 104 % of control; (dose: 10.0 mg/kg/injection, schedule: Q01DX009 (ip), vehicle: saline with Tween-80) 107 % of control; (dose: 20.0 mg/kg/injection, schedule: Q01DX009 (ip), vehicle: saline with Tween-80) 101 % of control; (dose: 50.0 mg/kg/injection, schedule: Q01DX008 (ip), vehicle: saline) 95 % of control; (dose: 100.0 mg/kg/injection, schedule: Q01DX008 (ip), vehicle: saline) 98 % of control; (dose: 200.0 mg/kg/injection, schedule: Q01DX008 (ip), vehicle: saline) 107 % of control. In addition, the T/C (dose: 400.0 mg/kg/injection, schedule: Q01DX008 (ip), vehicle: saline) was 101 % of control.

Consider `O=Cc1cc(O)ccc1O`, for which the T/C (dose: 100.0 mg/kg/injection, schedule: Q01DX009 (ip), vehicle: saline) is 103 % of control and 114 % of control.

With `N/N=C1/C=Cc2cccc3cccc1c23`, the T/C is 89 % of control under setting [3] and 89 % of control under setting [4].

On to `OCC(O)COCCCCCCCCCCCCCC1C=CCC1` (configuration not stated), for which the T/C runs as follows: (dose: 100.0 mg/kg/injection, schedule: Q04DX003 (ip), vehicle: saline) 95 % of control; (dose: 200.0 mg/kg/injection, schedule: Q04DX003 (ip), vehicle: saline) 89 % of control; (dose: 400.0 mg/kg/injection, schedule: Q04DX003 (ip), vehicle: saline) 96 % of control.

Take `COCN(C)N=Nc1ccc(C(C)=O)cc1`: the T/C is, setting by setting: under setting [5], 100 % of control; under setting [6], 104 % of control; under setting [7], 121 % of control.

Take `COc1ccc(OC)c(NC(=O)CCCC(=O)C(C#N)c2nc3ccccc3s2)c1` (configuration not stated): the T/C runs as follows: under setting [8], 105 % of control; under setting [9], 108 % of control; under setting [10], 100 % of control.

For the molecule `N#Cc1cnc(N)c(C#N)c1`, the T/C was 104 % of control under setting [1] and 104 % of control under setting [2].

Turning to `CCOc1c(N=Nc2ccc(OC)cc2)c(C)nn1C(=S)SC`, the T/C was 92 % of control (dose: 60.0 mg/kg/injection, schedule: Q01DX005 (ip), vehicle: Klucel + Tween-80); 92 % of control (dose: 120.0 mg/kg/injection, schedule: Q01DX005 (ip), vehicle: Klucel + Tween-80); 89 % of control (dose: 240.0 mg/kg/injection, schedule: Q01DX005 (ip), vehicle: Klucel + Tween-80).

Consider `Clc1cc(Cl)c(CBr)cc1CBr`, for which the T/C was 104 % of control (dose: 3.0 mg/kg/injection, schedule: Q04DX003 (ip), vehicle: saline with Tween-80); 104 % of control (dose: 6.0 mg/kg/injection, schedule: Q04DX003 (ip), vehicle: saline with Tween-80); 100 % of control (dose: 12.0 mg/kg/injection, schedule: Q04DX003 (ip), vehicle: saline with Tween-80).
